Measurements from patent EP1705169A2, “Triphenylalkene derivatives and their use as selective estrogen receptor modulators” (priority 1999, dated 2001).
Where two headings read alike, the source gives them in different places.

Assays:
[1] = system: MCF-7 cells; experiment: cells; details: for inhibition at 1 µM / Emax / cytotoxicity at 10 µM: Homo sapiens, MCF7, 96 h; for inhibition at 1 µM: read-out: Antagonism at 1 µM (% of full antagonism); for Emax: read-out: Maximal Agonism (% of E2); for Kill of MCF-7 cells (in words): highest investigated concentration (10 µM); for Hormonal activity (in words): summary statement referring to Table 2; for Estrogenic and antiestrogenic action (in words): summary statement referring to Tables 2, 3 and 4
Protocol: For experiments involving hormone or anti-hormone treatment, the cells in exponential growth phase were precultivated in the absence of estradiol for one day. […] After the incubation period the medium was removed. The exposure to study drugs was started immediately by adding fresh medium with 5 % stripped serum. Half of the cells were grown with estradiol, half without estradiol. Study compounds (dissolved in ethanol in 0.01 M concentration and diluted with the growth medium as appropriate) were added. The final concentrations of the compounds were 1,10, and 100 nM, and 1 and 10 µM. The cells were incubated for four days.
This method allows evaluation of estrogenicity based on the ability of the compounds to stimulate the growth of the estrogen-dependent cells in the absence of estradiol. Estrogenicity was estimated by comparing the maximal growth stimulus (at any concentration) of study compound as per cent from growth stimulus by estradiol (100 % stimulus). […] At high concentrations molecules may also show toxicity. Toxicity was estimated as the fraction of dead cells (i.e. 100 % means that all cells have died during the exposure).

[2] = system: immature female rats; experiment: 3 day uterotropic assay in immature female rats (given alone and with estradiol); format: in vivo; details: for Estrogen antagonism (% inhibition of estradiol) Given with estradiol / Uterotropic effect (% of estradiol) Given without estradiol: 3 days, immature female rats
Protocol: The values are given at two dose levels, low i.e. 3―5 mg/kg and high i.e. 10―50 mg/kg. Estrogenic activity can be estimated also after a 4 weeks' treatment of ovariectomized rats based on the uterine size.

[3] = read-out: Maximal Cell Kill (% fraction of dead cells), With estradiol (E2), toxicity at 10 µmol/l, 100 = all cells dead
[4] = read-out: Maximal Cell Kill (% fraction of dead cells), Without estradiol (E2), toxicity at 10 µmol/l, 100 = all cells dead

Structure (SMILES)	inhibition at 1 µM [1]	Emax [1]	cytotoxicity at 10 µM [1, 3]	cytotoxicity at 10 µM [1, 4]	cytotoxicity at 10 µM ([1]; read-out: Maximal Cell Kill (% fraction of dead cells))	Estrogenic action in vitro (in words) ([1]; Table 2)	Kill of MCF-7 cells (in words) ([1]; Table 2)	Hormonal activity (in words) [1]	Estrogenic action in vivo (in words) ([2]; Table 3)	Estrogen antagonism (% inhibition of estradiol) Given with estradiol ([2]; dose 3–5 mg/kg)	Uterotropic effect (% of estradiol) Given without estradiol ([2]; dose 3–5 mg/kg)	Estrogen antagonism (% inhibition of estradiol) Given with estradiol ([2]; dose 10–50 mg/kg)	Uterotropic effect (% of estradiol) Given without estradiol ([2]; dose 10–50 mg/kg)	Estrogenic and antiestrogenic action (in words) [1]
OCCOc1ccc(/C(=C(/CCCl)c2ccccc2)c2ccccc2)cc1 [FC-1271a, 2-[4-(4-chloro-1,2-diphenyl-but-1-enyl)phenoxy]ethanol, reference compound]	21%	23%	80%	50%										
CCCCN(C)C(=O)CCCCCCCCCC[C@@H]1Cc2cc(O)ccc2[C@H]2CC[C@]3(C)[C@@H](O)CC[C@H]3[C@H]12 [ICI 164,384, reference compound]	100%	9%			100%									
CN(C)CCOc1ccc(/C(=C(/CCCl)c2ccccc2)c2ccc(F)cc2)cc1 [No. 1, (E)-(2-{4-[4-Chloro-1-(4-fluorophenyl)-2-phenylbut-1-enyl]phenoxy}ethyl)-dimethylamine]	8%	1%	100%	100%		no estrogenic action in vitro	kill MCF-7 cells (human breast cancer cells) effectively	weak hormonal activity	weak estrogen in vivo	26 % inhibition of estradiol	42 % of estradiol	31 % inhibition of estradiol	74 % of estradiol	
CN(C)CCOc1ccc(/C(=C(\CCCl)c2ccccc2)c2ccc(F)cc2)cc1 [No. 2, (Z)-(2-{4-[4-Chloro-1-(4-fluorophenyl)-2-phenylbut-1-enyl]phenoxy}ethyl)-dimethylamine]	29%	100%	100%	32%										
CN(C)CCOc1ccc(/C(=C(/CCCl)c2ccc(Cl)cc2)c2ccc(Cl)cc2)cc1 [No. 4, (E)-(2-{4-[4-Chloro-1,2-bis(4-chlorophenyl)but-1-enyl]phenoxy}ethyl)-dimethylamine]	10%	10%	100%	90%										
CN(C)CCOc1ccc(/C(=C(\CCCl)c2ccc(Cl)cc2)c2ccc(Cl)cc2)cc1 [No. 5, (Z)-(2-{4-[4-Chloro-1,2-bis(4-chlorophenyl)but-1-enyl]phenoxy}ethyl)-dimethylamine]	31%	11%	100%	100%										
OCCOc1ccc(/C(=C(/CCCl)c2ccccc2)c2ccc(F)cc2)cc1 [No. 8, (E)-2-{4-[4-Chloro-2-phenyl-1-(4-fluorophenyl)but-1-enyl]phenoxy} ethanol]	92%	31%	52%	2%										
OCCOc1ccc(/C(=C(/CCCl)c2ccc(Cl)cc2)c2ccc(Cl)cc2)cc1 [No. 9, (E)-2-{4-[4-Chloro-1,2-bis(4-chlorophenyl)but-1-enyl]phenoxy}ethanol]	9%	14%	62%	45%										
OCCOc1ccc(C(=C(CCCl)c2ccccc2)c2ccc(OCCO)cc2)cc1 [No. 16, 2-(4-{4-Chloro-1-[4-(2-hydroxyethoxy)phenyl]-2-phenyl-but-1-enyl}phenoxy)-1-ethanol]	23%	22%	96%	90%			kill MCF-7 cells (human breast cancer cells) effectively	weak hormonal activity						
OCCOc1ccc(/C(=C(/CCCl)c2ccccc2)c2ccc(Cl)cc2)cc1 [No. 17, (E)-2-{4-[4-Chloro-2-phenyl-1-(4-chlorophenyl)but-1-enyl]phenoxy} ethanol]	17%	0%	38%	44%										
OCCOc1cccc(/C(=C(/CCCl)c2ccccc2)c2ccccc2)c1 [No. 18, (Z)-2-[3-(4-Chloro-1,2-diphenyl-but-1-enyl)phenoxy]ethanol]	1%		40%	10%										weak estrogenic and no antiestrogenic action
CN(C)CCOc1ccc(/C(=C(/CCCl)c2ccc(Cl)cc2)c2ccccc2)cc1 [No. 23, (Z)-(2-{4-[4-Chloro-2-(4-chlorophenyl)-1-phenylbut-1-enyl]phenoxy}ethyl)-dimethylamine]	5%	14%	93%	89%										
CN(C)CCOc1ccc(/C(=C(\CCCl)c2ccc(Cl)cc2)c2ccccc2)cc1 [No. 24, (E)-(2-{4-[4-Chloro-2-(4-chlorophenyl)-1-phenylbut-1-enyl]phenoxy}ethyl)-dimethylamine]	4%	46%	98%	89%										
CN(C)CCOc1ccc(/C(=C(/CCCl)c2ccc(F)cc2)c2ccccc2)cc1 [No. 25, (Z)-(2-{4-[4-Chloro-2-(4-fluorophenyl)-1-phenylbut-1-enyl]phenoxy}ethyl)-dimethylamine]	6%	17%	27%	42%										weak estrogenic and no antiestrogenic action
COc1ccc(/C(=C(\CCCl)c2ccc(Cl)cc2)c2ccc(OCCN(C)C)cc2)cc1 [No. 26, (Z)-(2-{4-[4-Chloro-2-(4-chlorophenyl)-1-(4-methoxyphenyl)but-1-enyl]phenoxy}-ethyl)dimethylamine]	11%	0%	98%	97%			kill MCF-7 cells (human breast cancer cells) effectively	weak hormonal activity						
COc1ccc(/C(=C(/CCCl)c2ccc(Cl)cc2)c2ccc(OCCN(C)C)cc2)cc1 [No. 27, (E)-(2-{4-[4-Chloro-2-(4-chlorophenyl)-1-(4-methoxyphenyl)but-1-enyl]phenoxy}-ethyl)dimethylamine]	5%	0%	100%	99%			kill MCF-7 cells (human breast cancer cells) effectively	weak hormonal activity						
OCCOc1ccc(/C(=C(/CCCl)c2ccccc2)c2cccc(O)c2)cc1 [No. 34, (E)-3-{4-Chloro-1-[4-(2-hydroxyethoxy)phenyl]-2-phenyl-but-1-enyl}-phenol]	0%	0%	0%	0%										
OCCCOc1ccc(/C(=C(/CCCl)c2ccccc2)c2ccccc2)cc1 [No. 35, (Z)-3-[4-(4-Chloro-1,2-diphenylbut-1-enyl)phenoxy]propan-1-ol]	14%		50%	50%						35 % inhibition of estradiol	43 % of estradiol	32 % inhibition of estradiol	66 % of estradiol	
COc1ccc(/C(=C(\CCCl)c2ccc(Cl)cc2)c2ccc(OCCO)cc2)cc1 [No. 37, (Z)-2-{4-[4-Chloro-2-(4-chlorophenyl)-1-(4-methoxyphenyl)but-1-enyl]-phenoxy} ethanol]	0%	4%	41%	39%										
OCCOc1ccc(/C(=C(/CCCl)c2ccc(O)cc2)c2ccccc2)cc1 [No. 42, (Z)-4-{1-(2-Chloroethyl)-2-[4-(2-hydroxyethoxy)phenyl]-2-phenylvinyl}phenol]	13%	9%	54%	23%										
OCCOc1ccc(/C(=C(\CCCl)c2ccc(O)cc2)c2ccccc2)cc1 [No. 43, (E)-4-{1-(2-Chloroethyl)-2-[4-(2-hydroxyethoxy)phenyl]-2-phenylvinyl}phenol]	6%	78%	22%	80%										
CC/C(=C(\c1ccccc1)c1ccc(OCCN(C)C)cc1)c1ccccc1 [Tamoxifen, reference compound]	43%	31%	100%	100%						51 % inhibition of estradiol	44 % of estradiol	58 % inhibition of estradiol	51 % of estradiol	
